The values below come from PMC3669024, “Pharmacological Characterization of a 5-HT1-Type Serotonin Receptor in the Red Flour Beetle, Tribolium castaneum” (PLoS ONE, 2013).

Test [1] concerns the target T1, Trica5-HT1 (Tribolium castaneum, UniProt R9ULB8). Nature of the test: Aequorin-luminescence assay, agonist activation of Trica5-HT1 in CHO-WTA11 cells (apoaequorin + Gα16). The class given is cell-based. The settings on record: for response at concentrations ≤100 µM: results not shown; for response at 100 µM agonist: Figure 3A; for agonist behaviour: dose-response 1 pM to 1 mM. How it is done:
(§1) General binding studies were performed in Chinese hamster ovary (CHO) WTA11 cells stably coexpressing apoaequorin and the promiscuous Gα16. This allowed us to measure the pharmacology independent of the downstream signaling. CHO-PAM28 cells stably expressing apoaequorin, but not the promiscuous Gα16, and human embryonic kidney cells (HEK) 293 cells were used to measure downstream signaling via Ca^2+ and cAMP, respectively. CHO cell lines were provided by Prof. Marc Parmentier (University of Brussels, Belgium) and Dr. Michel Detheux (Euroscreen S.A., Belgium). HEK293 cells were a gift from Prof. Arnd Baumann (Research Centre Jülich, Germany.
(§2) Cells were cultured in vitro as monolayers at 37°C, 5% CO2 and high relative humidity, and subcultivated twice a week. For transfection of CHO cells, 2.5 ml Opti-MEM®I (Invitrogen), 5 µg plasmid DNA and 12.5 µl Plus^TMreagent (Invitrogen) were mixed, stored at room temperature for 5 min and next repleted with 30 µl Lipofectamine™LTX (Invitrogen). After 30 min incubation at room temperature, this transfection mixture was added dropwise to the cells together with 5 ml medium. HEK293 cells were cotransfected with receptor construct (4 µg) and CRE-luciferase construct (2 µg), consisting of the open reading frame of the reporter gene, luciferase, downstream of a multimerized cAMP-response-element (CRE6x), [39]. All transfections were performed in T75 flasks with a confluency of about 60 percent. Cells were grown overnight, after which 15 ml of medium was added for an additional overnight incubation period.
(§3) The transfected CHO cells were detached with phosphate buffered saline (PBS) containing 0.2% EDTA and collected in DMEM/F-12 (without phenol red, with L-glutamine and 10 mM HEPES) (Gibco). The amount of viable cells was determined using the NucleoCounter NC-100+TM (Chemometic). Cells were pelleted for 4 min at 800 rpm at room temperature and resuspended in BSA-medium (DMEM/F12 without phenol red, with L-glutamine and 10 mM HEPES, supplemented with 0.1% bovine serum albumin) to a concentration of 5×10^6 cells/ml. Coelenterazine H (Invitrogen) was added to a final concentration of 5 µM, and cells were gently shaken for 4 h at room temperature in the dark. After a 10-fold dilution in BSA-medium, cells were incubated another 30 min. The pharmacological ligands were dissolved in BSA-medium. For agonists, 50 µl containing the final ligand concentration was added to appropriate wells of a 96-well plate. For antagonists, 25 µl of the antagonist solution was supplemented with 25 µl of a 5-HT solution. Receptor activity was measured as the light emission after adding 50 µl of the cell suspension. Light emission was measured for 30 s using a Mithras LB940 (Berthold Technologies). Subsequently, cells were lysed with Triton X-100 (0.1% in BSA-medium) and light emission was recorded for another 8 s. BSA-medium was used as a negative control. Light emission from each well was calculated relative to the total response (ligand+Triton X-100) using the output file of Mikrowin2000 software (Mikrotek). Further analysis was done in Graphpad Prism 5.
In order to pharmacologically characterize Trica5-HT1, we used CHO-WTA11 cells stably expressing apoaequorin and the promiscuous Gα16 subunit. […] The dose-response relationship for 5-HT and these synthetic agonists was examined at concentrations ranging from 1 pM to 1 mM (Figure 3B). […] Since the efficacy achieved by any agonist depends on the number of receptors expressed, we measured a dose-response curve for 5-HT in every experiment and normalized all agonist effects to the maximum 5-HT response, set at 100% (Figure 3B).

Test [2] deals with T1, Trica5-HT1. Nature of the test: Aequorin-luminescence assay, antagonist inhibition of 5-HT mediated activation of Trica5-HT1 in CHO-WTA11 cells. The conditions noted are these: for inhibition of 5-HT induced responses (words): antagonist 10 nM to 1 mM; for IC50 / logIC50 (mean ± SEM): CHO-WTA11 cells; for nature of inhibition: 5-HT dose-response in presence of different antagonist concentrations; for inhibition of activation by 100 nM 5-HT at high concentrations (≥1 mM): antagonist ≥1 mM. It is filed as cell-based. How it is done:
as §1, §2, §3
Potential antagonists were tested by simultaneously applying 5-HT (100 nM) and a high dose of antagonist (100 µM) to Trica5-HT1 expressing cells (Figure 4A). In addition, the dose-dependence of the antagonistic effects were measured with antagonist concentrations ranging from 10 nM to 1 mM (Figure 4B). […] We used the Gaddum/Schild plot to compare the inhibitory potencies of the antagonists by their pA2 values (i.e. the […] of the concentration of antagonist that doubles the amount of 5-HT required for obtaining the same effect).

Test [3] has as its system Pea5-HT1. Also noted: method as in PMID 20233210. The conditions noted are these: cited from earlier work.
For test [4], the system named is Am5-HT1. Also noted: method as in PMID 20349263. The settings on record: cited from earlier work.
Where [5] appears, read: receptor activation in CHO-WTA11 cells, read-out: EC50.
[6] abbreviates: inhibition of 5-HT (100 nM) mediated activation.
Where [7] appears, read: inhibition of 5-HT (100 nM) mediated activation, given as negative log values.
[8] abbreviates: IC50, inhibition of 5-HT (100 nM) mediated activation.
Where [9] appears, read: logIC50 (mean ± SEM), inhibition of 5-HT (100 nM) mediated activation, given as negative log values.
[10] abbreviates: receptor activation in CHO-WTA11 cells, given as negative log values.
[11] abbreviates: inhibition of 5-HT (100 nM) mediated activation, read-out: IC50.

The structures appear in SMILES notation. “Also recorded” adds a separate entry of the source. Counter-ions that a name gives are not always drawn. Like-named read-outs stand apart in the source and are kept apart here.

T1 sequence (R9ULB8 entry or part of it): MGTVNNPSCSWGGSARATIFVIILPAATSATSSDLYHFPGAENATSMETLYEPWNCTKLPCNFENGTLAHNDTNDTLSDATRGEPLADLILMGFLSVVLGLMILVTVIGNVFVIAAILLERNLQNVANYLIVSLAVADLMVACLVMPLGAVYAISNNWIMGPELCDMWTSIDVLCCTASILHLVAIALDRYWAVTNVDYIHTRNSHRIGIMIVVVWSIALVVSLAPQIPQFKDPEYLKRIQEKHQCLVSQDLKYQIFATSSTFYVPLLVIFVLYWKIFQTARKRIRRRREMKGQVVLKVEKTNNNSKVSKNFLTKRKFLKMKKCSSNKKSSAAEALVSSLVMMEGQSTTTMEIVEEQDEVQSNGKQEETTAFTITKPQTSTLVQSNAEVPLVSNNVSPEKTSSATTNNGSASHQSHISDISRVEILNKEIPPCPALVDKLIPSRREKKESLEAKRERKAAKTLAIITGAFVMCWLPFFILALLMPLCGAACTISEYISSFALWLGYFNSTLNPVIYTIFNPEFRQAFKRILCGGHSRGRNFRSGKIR

Turning to `NCCc1ccc(O)cc1` [tyramine, tyramine hydrochloride], the “response at concentrations ≤100 µM” value in test [1] (CHO-WTA11 cells) was “did not generate any detectable responses”.
`COc1ccc2[nH]cc(CCN)c2c1` [5-MT, 5-methoxytryptamine]: in test [1] (CHO-WTA11 cells), the “response at 100 µM agonist” value is “Significant responses” and the “agonist behaviour” value was “partial agonists”. Moreover, in test [1] (receptor activation in CHO-WTA11 cells, given as negative log values, read-out: logEC50 (mean ± SEM) (converted)), the EC50 is 91.2 µM. Besides, the EC50 in test [1] (setting [5]) came to 91.8 µM.
Consider `COC(=O)[C@@H]1[C@H]2C[C@H]3c4[nH]c5ccccc5c4CCN3C[C@@H]2CC[C@@H]1O` [yohimbin, yohimbine hydrochloride], for which, in test [2] (5-HT 100 nM, even at concentrations up to 100 µM), the inhibition result is reported as “about 30%”.
Take `COc1ccccc1N1CCN(CCN(C(=O)C2CCCCC2)c2ccccn2)CC1` [WAY-100635, N-{2-[4-(2-methoxyphenyl)-1-piperazinyl]-ethyl}-N-(2-pyridinyl) cyclohexanecarboxamide]: the “inhibition of agonist stimulated receptor” value in test [3] is “effective inhibition”. Further, in test [2] (5-HT 100 nM), the “inhibition of 5-HT induced responses (words)” value (“inhibition … (words)” below) was “no clear dose-dependent effect”. Also, the IC50 result in test [2] (setting [6]) is on record as “no clear dose-dependence of inhibition”. In test [2] (setting [7]), the “logIC50 (mean ± SEM)” value is on record as “no clear dose-dependence of inhibition”. In addition, the “antagonist behaviour” value in test [4] is “partial antagonist”.
Take `CC[C@@H](CO)NC(=O)[C@@H]1C=C2c3cccc4c3c(cn4C)C[C@H]2N(C)C1` [methysergide, methysergide maleate]: in test [2] (5-HT 100 nM), the “inhibition … (words)” value is given as “effective dose-dependent inhibition”. In test [2], the nature of inhibition entry was “competitive antagonists” and the “inhibition of activation by 100 nM 5-HT at high concentrations (≥1 mM)” value was “completely inhibited”. This compound returned an IC50 in test [2] (setting [8]) of 34 µM. Moreover, the IC50 in test [2] (setting [9]) is 33.9 µM.
The corresponding values for `COc1cc2nc(N3CCN(C(=O)c4ccco4)CC3)nc(N)c2cc1OC` [prazosin, prazosin hydrochloride] are “effective dose-dependent inhibition”, “competitive antagonists”, “completely inhibited”, 1.39 µM and 1.38 µM.
As to `O=C(c1ccc(F)cc1)C1CCN(CCn2c(=O)[nH]c3ccccc3c2=O)CC1` [ketanserin, ketanserin (+)-tartrate], in test [2] (5-HT 100 nM), the “inhibition … (words)” value is recorded as “no detectable inhibition”. For the same compound, the IC50 entry in test [2] (setting [6]) was “no inhibition”. Also, in test [2] (setting [7]), the “logIC50 (mean ± SEM)” value is given as “no inhibition”.
With `NCCc1c[nH]c2ccc(C(N)=O)cc12.O=C(O)/C=C\C(=O)O` [5-CT, 5-carboxamidotryptamine maleate], in test [1] (CHO-WTA11 cells), the “response at 100 µM agonist” value is reported as “Significant responses” and the “agonist behaviour” value is given as “partial agonists”. In addition, in test [1] (setting [10]), the “logEC50 (mean ± SEM)” value was −4.61±0.17. Moreover, the EC50 in test [1] (setting [5]) was determined as 24.7 µM.
With `CC1CCN(CC[C@H]2CCCN2S(=O)(=O)c2cccc(O)c2)CC1.Cl` [SB-269970, SB-269970 hydrochloride], the “inhibition … (words)” value in test [2] (5-HT 100 nM) is “Moderate inhibition; also recorded: more effective inhibition”. The “logIC50 (mean ± SEM)” value in test [2] (setting [7]) is −3.69±0.25. The IC50 in test [2] (setting [11]) turned out to be 205 µM.
On to `CC(N)Cc1c[nH]c2ccc(O)cc12.O=C(O)/C=C\C(=O)O` (stereo not drawn) [αm-5-HT, α-methylserotonin maleate], for which the “response at 100 µM agonist” value in test [1] (CHO-WTA11 cells) is listed as “Significant responses”. Besides, the “fold less potent than 5-HT” value in test [1] (EC50 compared with 5-HT, CHO-WTA11 cells) is listed as “more than 100 fold”. Also, the “logEC50 (mean ± SEM)” value in test [1] (setting [10]) is −4.97±0.18. Besides, the EC50 in test [1] (setting [5]) was determined as 10.7 µM.
On to `CCCN(CCC)C1CCc2cccc(O)c2C1` (racemic) [8-OH-DPAT, (±)-8-hydroxy-2-(dipropylamino)tetralin hydrobromide], for which the “agonist behaviour” value is recorded as “poor agonist” in test [3], “very poor response” in test [1] (CHO-WTA11 cells) and “poor agonist” in test [4]. In addition, the “concentrations at which responses were evoked” value in test [1] (CHO-WTA11 cells) was ≥ 100 µM. For the same compound, in test [1] (CHO-WTA11 cells), the “response at 100 µM agonist” value is reported as “Significant responses”. The EC50 in test [1] (EC50, receptor activation in CHO-WTA11 cells) is 551 µM; in test [1] (logEC50 (mean ± SEM), receptor activation in CHO-WTA11 cells, given as negative log values), 550 µM.
For the compound `NCC(O)c1ccc(O)cc1` (racemic) [octopamine, DL-octopamine hydrochloride], the “response at concentrations ≤100 µM” value in test [1] (CHO-WTA11 cells) is recorded as “did not generate any detectable responses”.
Same read-out and setting: to `Cl.NCCc1ccc(O)c(O)c1.NCCc1ccc(O)c(O)c1` [dopamine, 3-hydroxytyramine (dopamine) hydrochloride] belongs “did not generate any detectable responses”.
Take `CC(C)(C)[C@]1(O)CCN2C[C@H]3c4ccccc4CCc4cccc(c43)[C@@H]2C1` [butaclamol, (+)-butaclamol hydrochloride]: the “agonistic effects at high concentration” value in test [2] (100 µM, with 5-HT 100 nM) is recorded as “some agonistic effects”. For the same compound, the “inhibition … (words)” value in test [2] (5-HT 100 nM) is on record as “no detectable inhibition”. In addition, the IC50 in test [2] (setting [9]) is 204 µM.
As for `CSc1ccc2c(c1)C(N1CCN(C)CC1)Cc1ccccc1S2` (stereo not drawn) [methiothepin, methiothepin mesylate], the “inhibition … (words)” value in test [2] (5-HT 100 nM) was “effective dose-dependent inhibition”; in test [2] (5-HT 100 nM, listed as Methiothepin), “dose-dependent inhibition”. In addition, the nature of inhibition result in test [2] is listed as “competitive antagonists”. In addition, the Kb in test [2] (Gaddum/Schild plot, 5-HT dose-response in presence of 10 nM to 1 mM antagonist, read-out: pA2 (± SEM) (converted)) was 0.676 µM. In addition, in test [2], the “inhibition of activation by 100 nM 5-HT at high concentrations (≥1 mM)” value was “completely inhibited”. Besides, the IC50 was 16.2 µM in test [2] (inhibition of 5-HT (100 nM) mediated activation, given as negative log values, read-out: logIC50 (mean ± SEM) (converted)) and 16.4 µM in test [2] (setting [11]).
